Source: patent publication US20080171783A1, “COMPOSITIONS AND METHODS FOR TREATING HYPERPROLIFERATIVE DISEASE” (Migenix Inc., priority 2006, published 2008)

Tests used:
SR = test: NCI In Vitro Cell Line Screening (SRB); type: cell-based; conditions: Leukemia, 48 h
EKVX = test: NCI In Vitro Cell Line Screening (SRB); type: cell-based, human; conditions: Non-Small Cell Lung Cancer, 48 h; for GI50 / LC50: Homo sapiens
HCT-116 = test: NCI In Vitro Cell Line Screening (SRB); type: cell-based, human; conditions: HCT-116, Colon Cancer, 48 h
SNB-75 = test: NCI In Vitro Cell Line Screening (SRB); type: cell-based, human; conditions: SNB-75, CNS Cancer, 48 h; for GI50 / CC50: Homo sapiens; for CC50: read-out: LC50 (the source's name)
UACC-257 = test: NCI In Vitro Cell Line Screening (SRB); type: cell-based, human; conditions: UACC-257, Melanoma, 48 h
IGROV1 = test: NCI In Vitro Cell Line Screening (SRB); type: cell-based; conditions: IGROV1, Ovarian Cancer, 48 h; for CC50: read-out: LC50 (the source's name)
A498 = test: NCI In Vitro Cell Line Screening (SRB); type: cell-based, human; conditions: A498, Renal Cancer, 48 h; for GI50 / CC50: Homo sapiens; for CC50: read-out: LC50 (the source's name)
SN12C = test: NCI In Vitro Cell Line Screening (SRB); type: cell-based, human; conditions: Renal Cancer, 48 h; for GI50 / CC50: Homo sapiens; for CC50: read-out: LC50 (the source's name)
T-47D = test: NCI In Vitro Cell Line Screening (SRB); type: cell-based, human; conditions: Breast Cancer, 48 h
Caco-2 = test: Cell viability by XTT
Protocol: (§1) Compounds were solubilized at […] in DMSO and were stored at −20° C. Test compounds were initially tested at a single concentration of 10 μM and a subset of test compounds were further tested in selected cell lines using a six concentration dose response curve.
(§2) Cell Preparation Cancer cell lines were passaged in T-75 flasks prior to use in the assay in cell culture medium recommended by the ATCC (American Type Culture Collection; Table 6). On the day preceding the assay, the cells were split 1:2 to assure they were in an exponential growth phase at the time of compound treatment. Total cell and viability quantification was performed using a hemocytometer and Trypan Blue dye exclusion. […] The cells were resuspended at the appropriate cell per mL (Table 6) in tissue culture medium and added to the microtitre plates in a volume of 100 μL. Colon cell lines were incubated overnight at 37° C./5% CO2 to allow for cell adherence to the plates.
(§3) Plate Format: Each plate contains cell control wells (cells only), drug calorimetric control wells (drug only) as well as experimental wells (drug plus cells). Samples were tested in triplicate at a concentration of 10 μM and five half-logarithmic dilutions.
(§4) Cell Viability by XTT: Following incubation at 37° C. in a 5% CO2 incubator for four days, the test plates were stained with the tetrazolium dye XTT (2,3-bis(2-methoxy-4-nitro-5-sulfophenyl)-5-[(phenylamino)carbonyl]-2H-tetrazolium hydroxide). XTT-tetrazolium was metabolized by the mitochondrial enzymes of metabolically active cells to a soluble formazan product. XTT solution was prepared daily as a stock of 1 mg/mL in RPMI1640. Phenazine methosulfate (PMS) solution was prepared at 0.15 mg/mL in phosphate buffered saline (PBS) and stored in the dark at −20° C. XTT/PMS stock was prepared immediately before use by adding 40 μL of PMS per mL of XTT solution. Fifty (50) microlitres of XTT/PMS was added to each well of the plate and the plate was reincubated for 4 hours at 37° C. Plates were sealed with adhesive plate sealers and shaken gently or inverted several times to mix the soluble formazan product and the plate was read spectrophotometrically at 450/650 nm with a Molecular Devices Vmax plate reader. […] An Average Response Factor (ARF) was calculated for each compound by averaging the ten Percentage of Control values for the cell lines. […] Deviations below 100% control indicate activity. The concentration of each tested compound is 10 μM.

Jurkat = test: Cell viability by XTT
Protocol: as §1, §2, §3, §4

THP-1 = test: Cell viability by XTT
Protocol: as §1, §2, §3, §4

HT29 = test: cells
Protocol: as §1, §2, §3, §4

HCT-15 = test: Cell viability by XTT; type: cell-based; conditions: HCT-15, single dose 10 μM, four days
Protocol: as §1, §2, §3, §4

HL-60 = test: Cell viability by XTT; type: cell-based; conditions: HL-60, single dose 10 μM, four days
Protocol: as §1, §2, §3, §4

MDA-MB-468 = test: NCI In Vitro Cell Line Screening (SRB); conditions: for TGI: MDA-MB-468, Breast Cancer, 48 h

SMILES | GI50 (SR; Homo sapiens) [µM] | GI50 (EKVX) [µM] | LC50 (EKVX) [µM] | TGI (EKVX) [µM] | TGI (HCT-116) [µM] | GI50 (HCT-116; Homo sapiens) [µM] | GI50 (SNB-75) [µM] | CC50 (SNB-75) [µM] | TGI (SNB-75) [µM] | CC50 (IGROV1; Homo sapiens, IGROV-1) [µM] | TGI (IGROV1) [µM] | TGI (A498) [µM] | GI50 (A498) [µM] | CC50 (A498) [µM] | GI50 (SN12C) [µM] | CC50 (SN12C) [µM] | TGI (SN12C) [µM] | TGI (T-47D) [µM] | GI50 (T-47D; Homo sapiens, T47D) [µM] | GI50 (MDA-MB-468; Homo sapiens, MDA-MB-468, 48 h) [µM] | other results
CC(C)(C)c1ccc(NC(=O)[C@H](CCCCN)NC(=O)OCC2c3ccccc3-c3ccccc32)cc1 [Compound 105, (S)-[5-AMINO-1-(4-TERT-BUTYL-PHENYLCARBAMOYL)-PENTYL]-CARBAMIC ACID 9H-FLUOREN-9-YLMETHYL ESTER] | 0.403 | 21 | 90 | 43.5 | 3.35 | 1.53 | 1.29 | 5.97 | 2.78 | 6.97 | 3.11 | 0.665 | 0.116 | 15.5 | 13.8 | 62.9 | 29.5 | 3.08 | 1.45 | 1.46 | CC50 (SR; Homo sapiens, read-out: LC50 (the source's name)): > 100 µM; LC50 (concentration killing 50% of cells) (HCT-116; Homo sapiens): 7.3 µM; GI50 (UACC-257; Homo sapiens): 1.75 µM; TGI (UACC-257): 3.70 µM; Percentage of Cell Control (Caco-2; Caco-2, single dose 10 μM, four days): 0%; CC50 (Caco-2; Homo sapiens, Caco-2, read-out: Activity (TC50)): 8.6 µM; CC50 (Jurkat; Homo sapiens, read-out: Activity (TC50)): 2.5 µM; Percentage of Cell Control (Jurkat; single dose 10 μM, four days): 23.5%; CC50 (THP-1; Homo sapiens, THP-1, read-out: Activity (TC50)): 6.7 µM; Percentage of Cell Control (THP-1; THP-1, single dose 10 μM, four days): 0%; Percentage of Cell Control (HT29; HT29, single dose 10 μM, four days): 13.8%; CC50 (HT29; Homo sapiens, HT-29, read-out: Activity (TC50)): 8.5 µM; Percentage of Cell Control (HCT-15): 85.6%; Percentage of Cell Control (HL-60): 19.6%; TGI (MDA-MB-468): 3.27 µM
Cc1ccc(NC(=O)[C@@H](CCCCN)NC(=O)Nc2ccc3c(c2)Cc2ccccc2-3)cc1 [Compound 173, (R)-6-AMINO-2-[3-(9H-FLUOREN-2-YL)-UREIDO]-HEXANOIC ACID P-TOLYLAMIDE] | 1.3 | 1.19 | > 100 | 46.2 | 4.40 | 2.16 | 1.61 | > 100 | 4.65 | 81 | 17.9 | 8.26 | 1.99 | 37.9 | 1.17 | 5 | 2.41 | 3.78 | 1.7 | 1.66 | TGI (SR): 3.41 µM; GI50 (IGROV1; Homo sapiens, IGROV-1): 3.56 µM; CC50 (T-47D; Homo sapiens, T47D, read-out: LC50 (the source's name)): 8.41 µM; CC50 (MDA-MB-468; Homo sapiens, MDA-MB-468, 48 h, read-out: LC50): 8.31 µM; TGI (MDA-MB-468): 3.72 µM
